Data published in PubChem BioAssay AID248 (DTP/NCI, 2004).
Values joined by “and” are separate entries in the source; they are usually repeats but may differ in a detail not shown here. Equal entries are not always repeated. Toxic doses and inconclusive results are not listed.

System: L1210 leukemia ip in BDF1 mice, survival T/C
Experiment: NCI In Vivo Anticancer Drug Screen. Data for tumor model L1210 Leukemia (intraperitoneal) in B6D2F1 (BDF1) mice
Conditions: endpoint: mean survival time, higher = longer survival
Summary of the method: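 Read-out is survival time, reported as the treated-group measurement over the vehicle-control measurement.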

[1] = dose: 100.0 mg/kg/injection, schedule: Q01DX009 (ip), vehicle: Klucel (hydroxypropylcellulose) (HPC)
[2] = dose: 200.0 mg/kg/injection, schedule: Q01DX009 (ip), vehicle: Klucel (hydroxypropylcellulose) (HPC)
[3] = dose: 400.0 mg/kg/injection, schedule: Q01DX009 (ip), vehicle: Klucel (hydroxypropylcellulose) (HPC)
[4] = dose: 100.0 mg/kg/injection, schedule: Q04DX003 (ip), vehicle: Klucel (hydroxypropylcellulose) (HPC)
[5] = dose: 200.0 mg/kg/injection, schedule: Q04DX003 (ip), vehicle: Klucel (hydroxypropylcellulose) (HPC)
[6] = dose: 400.0 mg/kg/injection, schedule: Q04DX003 (ip), vehicle: Klucel (hydroxypropylcellulose) (HPC)

SMILES: CCCCc1c(F)cccc1C(=O)O
- T/C (dose: 12.5 mg/kg/injection, schedule: Q04DX003 (ip), vehicle: saline): 101 % of control
- T/C (dose: 25.0 mg/kg/injection, schedule: Q04DX003 (ip), vehicle: saline): 108 % of control
- T/C (dose: 50.0 mg/kg/injection, schedule: Q04DX003 (ip), vehicle: saline): 87 % of control

SMILES: CCOC(=O)C1(Br)CCN(S(=O)(=O)c2ccc(C)cc2)c2ccccc2C1=O (configuration not stated)
- T/C (dose: 100.0 mg/kg/injection, schedule: Q01DX001 (ip), vehicle: carboxymethylcellulose (CMC)): 108 % of control
- T/C (dose: 200.0 mg/kg/injection, schedule: Q01DX001 (ip), vehicle: carboxymethylcellulose (CMC)): 103 % of control
- T/C (dose: 400.0 mg/kg/injection, schedule: Q01DX001 (ip), vehicle: carboxymethylcellulose (CMC)): 100 % of control

SMILES: O=C(O)CC1(CC(=O)O)C(=O)N(c2ccccc2)c2ccccc21
- T/C (dose: 100.0 mg/kg/injection, schedule: Q01DX001 (ip), vehicle: saline with Tween-80): 95 % of control
- T/C (dose: 200.0 mg/kg/injection, schedule: Q01DX001 (ip), vehicle: saline with Tween-80): 90 % of control
- T/C (dose: 400.0 mg/kg/injection, schedule: Q01DX001 (ip), vehicle: saline with Tween-80): 97 % of control

SMILES: O=C(COc1cccc([N+](=O)[O-])c1)Nc1ccc(S(=O)(=O)F)cc1
- T/C [1]: 102 % of control
- T/C [2]: 100 % of control
- T/C [3]: 100 % of control

SMILES: O=P(NC12CC3CC(CC(C3)C1)C2)(N1CC1)N1CC1
- T/C (dose: 4.0 mg/kg/injection, schedule: Q04DX003 (ip), vehicle: Klucel (hydroxypropylcellulose) (HPC)): 107 % of control
- T/C (dose: 9.0 mg/kg/injection, schedule: Q04DX003 (ip), vehicle: Klucel (hydroxypropylcellulose) (HPC)): 150 % of control
- T/C (dose: 13.3 mg/kg/injection, schedule: Q04DX003 (ip), vehicle: Klucel (hydroxypropylcellulose) (HPC)): 152 % of control and 182 % of control
- T/C (dose: 20.0 mg/kg/injection, schedule: Q04DX003 (ip), vehicle: Klucel (hydroxypropylcellulose) (HPC)): 155 % of control and 176 % of control and 225 % of control
- T/C (dose: 27.0 mg/kg/injection, schedule: Q01DX001 (ip), vehicle: Klucel (hydroxypropylcellulose) (HPC)): 169 % of control
- T/C (dose: 30.0 mg/kg/injection, schedule: Q04DX003 (ip), vehicle: Klucel (hydroxypropylcellulose) (HPC)): 92 % of control

SMILES: Cc1ccc(S(=O)(=O)N(C)c2ccc(C#N)c(Cl)c2Cl)cc1
- T/C (dose: 100.0 mg/kg/injection, schedule: Q04DX003 (ip), vehicle: saline with Tween-80): 98 % of control
- T/C (dose: 200.0 mg/kg/injection, schedule: Q04DX003 (ip), vehicle: saline with Tween-80): 96 % of control
- T/C (dose: 400.0 mg/kg/injection, schedule: Q04DX003 (ip), vehicle: saline with Tween-80): 98 % of control

SMILES: CN/N=C/c1ccccc1
- T/C (dose: 12.5 mg/kg/injection, schedule: Q01DX009 (ip), vehicle: saline with Tween-80): 102 % of control
- T/C (dose: 25.0 mg/kg/injection, schedule: Q01DX009 (ip), vehicle: saline with Tween-80): 107 % of control
- T/C (dose: 50.0 mg/kg/injection, schedule: Q01DX009 (ip), vehicle: saline with Tween-80): 97 % of control and 112 % of control
- T/C (dose: 100.0 mg/kg/injection, schedule: Q04DX002 (ip), vehicle: saline with Tween-80): 95 % of control
- T/C (dose: 200.0 mg/kg/injection, schedule: Q04DX002 (ip), vehicle: saline with Tween-80): 92 % of control

SMILES: Cc1cccc(Nc2cc(Cl)nc(N)n2)c1
- T/C (dose: 100.0 mg/kg/injection, schedule: Q01DX Z (ip), vehicle: methylcellulose (MC)): 97 % of control
- T/C (dose: 200.0 mg/kg/injection, schedule: Q01DX Z (ip), vehicle: methylcellulose (MC)): 89 % of control

SMILES: CCCCCCCCCCCCCCCCC1(CC)NC(=O)NC1=O (configuration not stated)
- T/C [4]: 95 % of control
- T/C [5]: 93 % of control
- T/C [6]: 96 % of control

SMILES: CC(O)CC[P+](c1ccccc1)(c1ccccc1)c1ccccc1 (configuration not stated)
- T/C (dose: 75.0 mg/kg/injection, schedule: Q01DX001 (ip), vehicle: other): 101 % of control
- T/C (dose: 150.0 mg/kg/injection, schedule: Q01DX001 (ip), vehicle: other): 93 % of control

SMILES: COc1c(C)cc(Br)c2c1C(CCN(C)S(=O)(=O)Cc1ccccc1)CCC2 (configuration not stated)
- T/C [1]: 95 % of control
- T/C [4]: 96 % of control
- T/C [2]: 89 % of control
- T/C [5]: 98 % of control
- T/C [3]: 93 % of control
- T/C [6]: 91 % of control

SMILES: CN(CCN(C)S(=O)(=O)c1ccccc1)S(=O)(=O)c1ccccc1
- T/C (dose: 75.0 mg/kg/injection, schedule: Q01DX009 (ip), vehicle: Klucel (hydroxypropylcellulose) (HPC)): 94 % of control
- T/C (dose: 150.0 mg/kg/injection, schedule: Q01DX009 (ip), vehicle: Klucel (hydroxypropylcellulose) (HPC)): 107 % of control
- T/C (dose: 300.0 mg/kg/injection, schedule: Q01DX009 (ip), vehicle: Klucel (hydroxypropylcellulose) (HPC)): 95 % of control
